Laboratory results published in US12576087B2, “Aryloxypiperidine pyrazole compounds as indoleamine 2,3-dioxygenase inhibitors” (Merck Sharp & Dohme LLC, priority 2018, dated 2026).
pIC50: −log10 of the molar value. Where two headings read alike, the source gives them in different places.

Target: IDO1 (Homo sapiens, UniProt P14902)
Experiment: IDO1 Human Whole Blood Assay
Format: cell-based
Procedure: Compounds to be tested were serially diluted in ten 3-fold steps in DMSO starting from 10 mM. 3 μL of compound dilutions or DMSO alone were then dispensed from the dilution plate into a polypropylene 96-well assay plate containing 97 μL of RPMI medium using an Echo 555 acoustic liquid handler (Labcyte). LPS and IFNγ was prepared in RPMI medium to a 10× of final conc. (1000 ng/mL), final concentration is 100 ng/mL.
Human whole blood was drawn in sodium heparin coated tubes from healthy internal donors. 240 μL of blood was transferred to each of the wells of a v-bottom 96 well plate. 30 μL of compound was transferred from intermediate dilution plate, and incubated for 15 min. 30 μL from stimulants was then transferred to blood and mixed thoroughly. Plate was covered with breathable membrane and incubated at 37° C. for overnight (18 h).
On day 2, isotope labeled standard solutions of kunurenine and tryptophan was made in water at 10× concentration and 30 μL was added to the blood at 3 μM final concentration. The assay plates were centrifuged at 300×G for 10 min with no brake to separate plasma from red blood cells. 60 μL of plasma samples was removed without disturbing red blood cells. Plasma was diluted with RPMI in 1:1 ratio and proteins were precipitated out with two volumes of Acetonitrile. The plates were centrifuged at 4000×G for 60 min. 20 μL of supernatant was carefully transferred to a 384 well plate containing 40 μL of 0.1% formic acid in water and analyzed by LC/MS/MS.
LC/MS/MS analyses were performed using Thermo Fisher's LX4-TSQ Quantum Ultra system. This system consists of four Agilent binary high-performance liquid chromatography (HPLC) pumps and a TSQ Quantum Ultra triple quadrupole MS/MS instrument. For each sample, 5 μL were injected onto an Atlantis T3 column (2.1 mm×150 mm, 3 μm particle size) from Waters. The mobile phase gradient pumped at 0.8 mL/min was used to elute the analytes from the column at 25° C. The elution started at 0% B increasing linearly to 25% B at 6.5 min, holding at 25% for 1 min, re-equilibrating to 10 min. Mobile phase A consisted of 0.1% formic acid in water. Mobile phase B consisted of 0.1% of formic acid in acetonitrile. Data were acquired in positive mode using a HESI interface. The operational parameters for the TSQ Quantum Ultra instrument were a spray voltage of 4000 V, capillary temperature of 380° C., vaporizer temperature 400° C., shealth gas 60 arbitrary units, Aux gas 20 arbitrary units, tube lens 85 and collision gas 1.2 mTorr. SRM chromatograms of kynurenine (Q1: 209.2>Q3:94.0) and internal standard (Q1: 215.3>Q3:98.2) were collected for 90 sec. The peak area was integrated by Xcalibur Quan software. The ratios between the kynurenine generated in the reaction and 2D6-Kynurenine spiked-in internal standard were used to generate percentage inhibition and IC50 values. Compounds were titrated and IC50's were calculated by 4 parameter sigmoidal curve fitting formula.

[1] = WBLD taken as whole blood, read-out: WBLD IC50

Sequence of IDO1 (P14902 whole entry): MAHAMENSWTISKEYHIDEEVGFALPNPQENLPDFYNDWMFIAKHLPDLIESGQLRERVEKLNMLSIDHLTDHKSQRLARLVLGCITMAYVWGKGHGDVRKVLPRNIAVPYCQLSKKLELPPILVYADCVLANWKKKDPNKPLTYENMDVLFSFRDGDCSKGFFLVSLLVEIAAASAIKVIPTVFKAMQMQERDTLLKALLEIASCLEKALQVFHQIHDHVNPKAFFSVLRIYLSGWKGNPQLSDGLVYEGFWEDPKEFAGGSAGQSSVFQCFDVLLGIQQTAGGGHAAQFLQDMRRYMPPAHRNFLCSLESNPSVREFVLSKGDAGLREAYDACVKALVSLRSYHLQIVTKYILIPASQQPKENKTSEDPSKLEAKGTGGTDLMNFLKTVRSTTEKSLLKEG

Row | SMILES | pIC50 [1] | pIC50 (human whole blood, LPS and IFNγ 100 ng/mL, 18 h, kynurenine by LC/MS/MS, read-out: IDO1 human whole blood assay, IC50)
1 | CC(=O)NC1CCN(C(=O)c2nn(CC(=O)N3CCC(Oc4ccccc4C)CC3)c3c2[C@@H]2C[C@@H]2C3)CC1 [Example 29, N-(1-((3bR,4aR)-1-(2-oxo-2-(4-(o-tolyloxy)piperidin-1-yl)ethyl)-3b,4,4a,5-tetrahydro-1H-cyclopropa[3,4]cyclopenta[1,2-c]pyrazole-3-carbonyl)piperidin-4-yl)acetamide] | 6.94 | 6.20
2 | Cc1cc(F)ccc1OC1CCN(C(=O)Cn2nc(C(=O)N3CCC(OCCO)CC3)c3c2CCCC3)CC1 [Example 76, 1-[4-(4-fluoro-2-methyl-phenoxy)-1-piperidyl]-2-[3-[4-(2-hydroxyethoxy)piperidine-1-carbonyl]-4,5,6,7-tetrahydroindazol-1-yl]ethanone] | 7.22 | –
3 | Cc1ccc(Cl)c(OC2CCN(C(=O)Cn3nc(C(=O)N4C[C@@H](C)O[C@@H](C)C4)c4c3CCC4)CC2)c1 [Example 93, 1-[4-(2-chloro-5-methylphenoxy)piperidin-1-yl]-2-{3-[(2R,6S)-2,6-dimethylmorpholine-4-carbonyl]-5,6-dihydrocyclopenta[c]pyrazol-1(4H)-yl}ethan-1-one] | 6.58 | –
4 | Cc1ccccc1SC1CCN(C(=O)Cn2nc(C(=O)N3CC[C@@H](O)[C@@H](F)C3)c3c2C[C@H]2C[C@@H]32)CC1 [Example 177, 2-((3bR,4aR)-3-((3S,4R)-3-Fluoro-4-hydroxypiperidine-1-carbonyl)-3b,4,4a,5-tetrahydro-1H-cyclopropa[3,4]cyclopenta[1,2-c]pyrazol-1-yl)-1-(4-(o-tolylthio)piperidin-1-yl)ethanone] | 6.27 | –
